Measured values from PubChem BioAssay AID330 (DTP/NCI, 2004).
Where “and” joins values, the source holds several entries; their conditions need not be identical. Identical values can stand only once. Toxic doses and inconclusive results are not listed. The calls were made as follows: active = survival T/C of 150% or more; inactive = T/C below 125% in these data.

Test system: P388 leukemia ip, CD2F1 mice, survival T/C
Assay: NCI In Vivo Anticancer Drug Screen. Data for tumor model P388 Leukemia (intraperitoneal) in CD2F1 (CDF1) mice
Details: endpoint: median survival time, higher = longer survival
Summary of the method: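 Mice carrying the transplanted tumor received test compound or vehicle. Survival was recorded in each group, and the value is the treated-group measurement divided by that of the vehicle-treated control group.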

[1] = dose: 100.0 mg/kg/injection, schedule: Q01DX001 (ip), vehicle: Klucel (hydroxypropylcellulose) (HPC)
[2] = dose: 200.0 mg/kg/injection, schedule: Q01DX001 (ip), vehicle: Klucel (hydroxypropylcellulose) (HPC)
[3] = dose: 400.0 mg/kg/injection, schedule: Q01DX001 (ip), vehicle: Klucel (hydroxypropylcellulose) (HPC)
[4] = dose: 50.0 mg/kg/injection, schedule: Q01DX009 (ip), vehicle: saline with Tween-80
[5] = dose: 100.0 mg/kg/injection, schedule: Q01DX009 (ip), vehicle: saline with Tween-80
[6] = dose: 200.0 mg/kg/injection, schedule: Q01DX009 (ip), vehicle: saline with Tween-80
[7] = dose: 50.0 mg/kg/injection, schedule: Q01DX005 (ip), vehicle: Klucel (hydroxypropylcellulose) (HPC)
[8] = dose: 100.0 mg/kg/injection, schedule: Q01DX005 (ip), vehicle: Klucel (hydroxypropylcellulose) (HPC)
[9] = dose: 50.0 mg/kg/injection, schedule: Q01DX005 (ip), vehicle: saline with Tween-80
[10] = dose: 100.0 mg/kg/injection, schedule: Q01DX005 (ip), vehicle: saline with Tween-80
[11] = dose: 200.0 mg/kg/injection, schedule: Q01DX005 (ip), vehicle: saline with Tween-80
[12] = dose: 50.0 mg/kg/injection, schedule: Q01DX009 (ip), vehicle: Klucel (hydroxypropylcellulose) (HPC)
[13] = dose: 100.0 mg/kg/injection, schedule: Q01DX009 (ip), vehicle: Klucel (hydroxypropylcellulose) (HPC)
[14] = dose: 200.0 mg/kg/injection, schedule: Q01DX009 (ip), vehicle: Klucel (hydroxypropylcellulose) (HPC)
[15] = dose: 60.0 mg/kg/injection, schedule: Q01DX005 (ip), vehicle: saline with Tween-80
[16] = dose: 120.0 mg/kg/injection, schedule: Q01DX005 (ip), vehicle: saline with Tween-80

Measured: T/C

O=C(O)c1cc([N+](=O)[O-])ccc1Nc1ccccc1
inactive: dose: 6.25 mg/kg/injection, schedule: Q01DX009 (ip), vehicle: suspension in saline 108 % of control and 90 % of control | dose: 12.5 mg/kg/injection, schedule: Q01DX009 (ip), vehicle: suspension in saline 104 % of control | dose: 25.0 mg/kg/injection, schedule: Q01DX009 (ip), vehicle: suspension in saline 100 % of control and 90 % of control | dose: 50.0 mg/kg/injection, schedule: Q01DX009 (ip), vehicle: suspension in saline 111 % of control and 91 % of control

CCCC1CC[N-]CC1.CCCC1CC[N-]CC1.[Cl][Pt+2]([Cl])([Cl])[Cl]
inactive: dose: 1.0 mg/kg/injection, schedule: Q01DX009 (ip), vehicle: saline with Tween-80 90 % of control | dose: 2.0 mg/kg/injection, schedule: Q01DX009 (ip), vehicle: saline with Tween-80 95 % of control | dose: 3.75 mg/kg/injection, schedule: Q01DX009 (ip), vehicle: saline with Tween-80 100 % of control | dose: 4.0 mg/kg/injection, schedule: Q01DX009 (ip), vehicle: saline with Tween-80 100 % of control | dose: 11.0 mg/kg/injection, schedule: Q01DX009 (ip), vehicle: saline with Tween-80 118 % of control | dose: 25.0 mg/kg/injection, schedule: Q04DX003 (ip), vehicle: saline with Tween-80 110 % of control | dose: 37.5 mg/kg/injection, schedule: Q01DX009 (ip), vehicle: saline with Tween-80 118 % of control | dose: 50.0 mg/kg/injection, schedule: Q04DX003 (ip), vehicle: saline with Tween-80 120 % of control | dose: 75.0 mg/kg/injection, schedule: Q04DX003 (ip), vehicle: saline with Tween-80 95 % of control

Cn1c(Cl)c(/C=C2/N=C(c3ccccc3)OC2=O)c2ccccc21
inactive: [1] 94 % of control | [2] 94 % of control | [3] 94 % of control

COc1ccc(SS(=O)c2ccc(OC)cc2)cc1 (stereo unspecified)
inactive: dose: 100.0 mg/kg/injection, schedule: Q04DX002 (ip), vehicle: saline with Tween-80 100 % of control | dose: 200.0 mg/kg/injection, schedule: Q04DX002 (ip), vehicle: saline with Tween-80 102 % of control | dose: 400.0 mg/kg/injection, schedule: Q04DX002 (ip), vehicle: saline with Tween-80 102 % of control

O=C(NC(=S)Nc1ccsc1)c1ccccc1
inactive: [4] 90 % of control | [5] 88 % of control

Cc1cc2c(cc1C)NC1C(=O)C(c3ccc(Cl)c(Cl)c3)OC1=N2 (stereo unspecified)
inactive: dose: 30.0 mg/kg/injection, schedule: Q01DX005 (ip), vehicle: Klucel (hydroxypropylcellulose) (HPC) 91 % of control | dose: 60.0 mg/kg/injection, schedule: Q01DX005 (ip), vehicle: Klucel (hydroxypropylcellulose) (HPC) 91 % of control | dose: 120.0 mg/kg/injection, schedule: Q01DX005 (ip), vehicle: Klucel (hydroxypropylcellulose) (HPC) 93 % of control | dose: 240.0 mg/kg/injection, schedule: Q01DX005 (ip), vehicle: Klucel (hydroxypropylcellulose) (HPC) 86 % of control

CCCC(C)C(=O)N(C(C)=O)c1ccc(Cl)c(Cl)c1 (stereo unspecified)
inactive: [4] 103 % of control | [5] 103 % of control | [6] 110 % of control

CCCCCn1cc[nH]c1=S
inactive: dose: 12.5 mg/kg/injection, schedule: Q01DX005 (ip), vehicle: Klucel (hydroxypropylcellulose) (HPC) 101 % of control | dose: 25.0 mg/kg/injection, schedule: Q01DX005 (ip), vehicle: Klucel (hydroxypropylcellulose) (HPC) 104 % of control | [7] 100 % of control and 101 % of control | [8] 104 % of control | dose: 200.0 mg/kg/injection, schedule: Q01DX005 (ip), vehicle: Klucel (hydroxypropylcellulose) (HPC) 110 % of control

FC(F)(F)C1=C(C(F)(F)F)SP(Cl)(c2ccccc2)(c2ccccc2)S1
inactive: dose: 50.0 mg/kg/injection, schedule: Q04DX003 (ip), vehicle: other 107 % of control | dose: 100.0 mg/kg/injection, schedule: Q04DX003 (ip), vehicle: other 100 % of control | dose: 200.0 mg/kg/injection, schedule: Q04DX003 (ip), vehicle: other 93 % of control

CCOC(=O)C1CSC2(CC(C)CC(C)(C)C2)N1 (stereo unspecified)
inactive: [9] 106 % of control | [10] 107 % of control | [11] 104 % of control

Cc1ccccc1N1CCOS(=O)OC(C)C1 (stereo unspecified)
inactive: [9] 100 % of control | [10] 104 % of control | [11] 100 % of control

CC(=O)C1C(=O)C(=O)N(c2ccc(C)cc2C)C1=O (stereo unspecified)
inactive: [12] 105 % of control | [13] 114 % of control | [14] 110 % of control

COc1cc(C(c2cc3c(cc2O)OCO3)N2CCOCC2)ccc1O (stereo unspecified)
inactive: [15] 116 % of control | [16] 106 % of control

COC(=O)C(Cc1ccccc1)NC(=O)C(C)NC(=O)c1ccc(OC)cc1 (stereo unspecified)
inactive: dose: 100.0 mg/kg/injection, schedule: Q01DX001 (ip), vehicle: saline with Tween-80 100 % of control | dose: 200.0 mg/kg/injection, schedule: Q01DX001 (ip), vehicle: saline with Tween-80 100 % of control | dose: 400.0 mg/kg/injection, schedule: Q01DX001 (ip), vehicle: saline with Tween-80 93 % of control

CCOC(=O)/C(=C/Nc1ccc(O)cc1)NC(=O)c1ccccc1
inactive: [12] 103 % of control and 104 % of control | [13] 94 % of control and 97 % of control | [14] 118 % of control and 87 % of control | dose: 400.0 mg/kg/injection, schedule: Q01DX009 (ip), vehicle: Klucel (hydroxypropylcellulose) (HPC) 89 % of control

Cc1oc(-c2ccc(F)cc2)nc1C(N)=O
inactive: [1] 97 % of control | [2] 94 % of control | [3] 101 % of control

CN1CCC2CC1c1ccn(C)c1C2=O (stereo unspecified)
inactive: dose: 7.5 mg/kg/injection, schedule: Q01DX005 (ip), vehicle: saline 93 % of control | dose: 15.0 mg/kg/injection, schedule: Q01DX005 (ip), vehicle: saline 96 % of control | dose: 30.0 mg/kg/injection, schedule: Q01DX005 (ip), vehicle: saline 106 % of control

C=CC(C)(C)N1C(=O)C(C(C)=O)=C(O)C1Cc1c[nH]c2ccccc12 (stereo unspecified)
inactive: dose: 8.75 mg/kg/injection, schedule: Q01DX005 (ip), vehicle: Klucel (hydroxypropylcellulose) (HPC) 99 % of control | dose: 17.5 mg/kg/injection, schedule: Q01DX005 (ip), vehicle: Klucel (hydroxypropylcellulose) (HPC) 99 % of control | dose: 35.0 mg/kg/injection, schedule: Q01DX005 (ip), vehicle: Klucel (hydroxypropylcellulose) (HPC) 97 % of control

O=CC(=C\c1cccs1)/C(C=O)=C\c1cccs1
inactive: dose: 12.5 mg/kg/injection, schedule: Q01DX005 (ip), vehicle: saline with Tween-80 107 % of control | dose: 25.0 mg/kg/injection, schedule: Q01DX005 (ip), vehicle: saline with Tween-80 108 % of control | [9] 108 % of control and 114 % of control | [10] 109 % of control

COc1ccc(-n2[nH]c3c(cnc4ccccc43)c2=O)cc1
inactive: dose: 15.0 mg/kg/injection, schedule: Q01DX005 (ip), vehicle: saline with Tween-80 87 % of control | dose: 30.0 mg/kg/injection, schedule: Q01DX005 (ip), vehicle: saline with Tween-80 87 % of control | [15] 90 % of control | [16] 100 % of control | dose: 240.0 mg/kg/injection, schedule: Q01DX005 (ip), vehicle: saline with Tween-80 94 % of control

COc1ccc(N=NS(=O)(=O)O)cn1
inactive: dose: 3.12 mg/kg/injection, schedule: Q01DX009 (ip), vehicle: saline with Tween-80 93 % of control | dose: 6.25 mg/kg/injection, schedule: Q01DX009 (ip), vehicle: saline with Tween-80 101 % of control | dose: 12.5 mg/kg/injection, schedule: Q01DX009 (ip), vehicle: saline with Tween-80 108 % of control | dose: 25.0 mg/kg/injection, schedule: Q01DX009 (ip), vehicle: saline with Tween-80 97 % of control | [4] 99 % of control and 97 % of control | [5] 94 % of control | [6] 106 % of control | dose: 400.0 mg/kg/injection, schedule: Q01DX009 (ip), vehicle: saline with Tween-80 101 % of control

O=c1oc2ccccc2cc1Cc1cc2ccccc2oc1=O
inactive: [12] 103 % of control | [13] 97 % of control

CC1CCC(C(C)C)C(OC(=O)c2cc[n+](C)cc2)C1 (stereo unspecified)
inactive: [7] 107 % of control | [8] 98 % of control

CN(C)c1ccc(C(=C2C=CC(=[N+](C)C)C=C2)c2ccc(N(C)C)cc2)cc1
inactive: dose: 0.19 mg/kg/injection, schedule: Q01DX009 (ip), vehicle: saline 108 % of control | dose: 0.39 mg/kg/injection, schedule: Q01DX009 (ip), vehicle: saline 123 % of control
